Where “and” joins values, the source holds several entries; their conditions need not be identical. Identical values can stand only once.
Tests used:
[1] = tested on: epidermal differentiation proteins; test: In vitro expression of epidermal differentiation proteins; assay type: cell-based; details: own unpublished results
[2] = Skin/eye irritation test (in house data)
PPARα = molecular target: T1, PPARα (Homo sapiens, UniProt Q07869); test: PPARα luciferase reporter gene activation in SK-Hep1 cells cotransfected with PPARα expression vector; assay type: cell-based; details: for Fold Activation PPAR alpha, MEAN: mean of the two experiments in triplicate; for Fold Activation PPAR alpha: single values of triplicates, two experiments, relative to control; for balance of stimulation of PPAR-alpha and -gamma receptors: both receptors activated in the same concentration range
T1 construct: expressed in transfected cells; host or cells: human SK-Hep1 cells
T1 sequence (Q07869 1-468): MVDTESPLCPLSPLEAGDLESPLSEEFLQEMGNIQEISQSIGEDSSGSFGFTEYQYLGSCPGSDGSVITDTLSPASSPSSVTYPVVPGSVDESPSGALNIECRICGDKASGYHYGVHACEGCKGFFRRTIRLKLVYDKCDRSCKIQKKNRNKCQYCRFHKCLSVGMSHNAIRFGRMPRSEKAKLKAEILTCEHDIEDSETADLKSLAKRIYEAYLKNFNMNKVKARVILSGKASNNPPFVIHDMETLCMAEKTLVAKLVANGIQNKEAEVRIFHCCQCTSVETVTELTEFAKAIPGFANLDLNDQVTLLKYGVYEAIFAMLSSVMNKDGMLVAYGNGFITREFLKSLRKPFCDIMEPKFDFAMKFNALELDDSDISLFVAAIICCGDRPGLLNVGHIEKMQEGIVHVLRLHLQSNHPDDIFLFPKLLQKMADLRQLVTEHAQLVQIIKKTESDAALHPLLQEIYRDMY
Excerpt: (§1) Analysis of the activation of PPARα and PPARγ is based on the transfection of a DNA allowing the expression of a reporter gene (the gene of luciferase) under the control of the PPARs, either endogenous in the case of PPARγ or cotransfected in the case of PPARα. The reporter plasmid J3TkLuc comprises three copies of the response element for PPARs of the human apo A-II gene (Staels, B et al. (1995), J. Clin. Invest., 95, 705-712) which are cloned upstream of the promoter of the thymidine kinase gene of the herpes simplex virus in the plasmid pGL3. This reporter gene was obtained by subcloning, in the plasmid pGL3, the plasmid J3TkCAT described above (Fajas, L et al. (1997), J. Biol. Chem., 272, 18779-18789). […] These cells were inoculated at a density of 20,000 cells per well (96-well plates) and transfected with 150 ng of reporter DNA complexed with a mixture of lipids. In the case of the SK-Hep1 cells, an expression vector for PPARα, described by Sher, T. et al. (1993), Biochemistry, 32, 5598-5604, is cotransfected. After 5 hours, the cells are washed twice and incubated for 36 hours in the presence of the test compound in a fresh culture medium comprising 10% foetal calf serum. At the end of incubation, the cells are lysed and the luciferase activity is measured.

PPARγ = PPARγ luciferase reporter gene activation in CV1 cells expressing endogenous PPARγ; assay type: cell-based, green monkey; details: for Fold Activation PPAR gamma, MEAN: mean of the two experiments in triplicate; for Fold Activation PPAR gamma: single values of triplicates, two experiments, relative to control
Excerpt: as §1

animal models = details: in vivo
[3] = Mutagenicity studies (in house data)
[4] = Skin sensitization test (in house data)
[5] = tested on: subjects of skin type 3 or 4; test: Double blind clinical trial of skin whitening activity on forearms, versus placebo formulation; assay type: in vivo, human; details: oil-in-water emulsion with 1.0% Compound vs placebo, forearm, twice a day, 4½ weeks
Description: Skin whitening activity was evaluated in a double blind clinical trial. As study medication a oil-in-water emulsion formulation containing 1.0% of the Compound, in comparison with the same formulation containing no active ingredient (placebo) was used.
The study was executed with subjects of skin type 3 or 4, aged from 18 to 50 years, whereby the active formulation was applied on one forearm twice a day and the placebo formulation on the other forearm for 4½ weeks. Assessment of whitening efficacy was performed on both forearms at day 0, 14 and 28 by visual assessment (examination of pigmentation differences), colorimetric measurements (using Chroma-Meter CR 300, Minolta resulting in L* values, expressing the changes in brightness, and ITA° values Individual Typology Angle expressing the melanin index) as well as digital photographs.

COc1ccc2c(c1)C(/C=C/C(C)=C/C(=O)O)=CC(C)(C)CO2 [Compound, 5-(7-methoxy-3,3-dimethyl-2,3-dihydro-1-benzoxepin-5-yl)-3-methyl-penta-2,4-dienoic acid]
expression of epidermal differentiation proteins [1]: increased expression | skin/eye irritation [2]: no skin/eye irritation | Fold Activation PPAR alpha, MEAN (PPARα; 0.3 μm): 1.4 fold | Fold Activation PPAR alpha (PPARα; 0.3 μm): 0.7 fold and 0.8 fold and 0.6 fold and 0.5 fold | Fold Activation PPAR alpha, MEAN (PPARα; 1 μm): 0.7 fold | Fold Activation PPAR alpha, MEAN (PPARα; 3 μm): 0.8 fold | Fold Activation PPAR alpha (PPARα; 3 μm): 0.6 fold and 0.7 fold and 1.0 fold and 1.1 fold and 0.8 fold | Fold Activation PPAR alpha, MEAN (PPARα; 10 μm): 1.2 fold | Fold Activation PPAR alpha, MEAN (PPARα; 30 μm): 4.9 fold | Fold Activation PPAR alpha, MEAN (PPARα; 50 μm): 8.0 fold | Fold Activation PPAR alpha, MEAN (PPARα; 100 μm): 6.9 fold | balance of stimulation of PPAR-alpha and -gamma receptors (PPARα): well-balanced stimulation | balance of stimulation of PPAR-alpha and -gamma receptors (PPARα; listed as EMD 336340): balanced activity | Fold Activation PPAR gamma, MEAN (PPARγ; 0.3 μm): 0.9 fold | Fold Activation PPAR gamma, MEAN (PPARγ; 1 μm): 1.0 fold | Fold Activation PPAR gamma (PPARγ; 1 μm): 0.8 fold and 1.2 fold and 0.9 fold and 1.0 fold and 1.3 fold | Fold Activation PPAR gamma, MEAN (PPARγ; 3 μm): 1.5 fold | Fold Activation PPAR gamma (PPARγ; 3 μm): 1.2 fold and 1.6 fold and 1.3 fold and 2.1 fold | Fold Activation PPAR gamma, MEAN (PPARγ; 10 μm): 5.2 fold | Fold Activation PPAR gamma, MEAN (PPARγ; 30 μm): 14.4 fold | Fold Activation PPAR gamma, MEAN (PPARγ; 50 μm): 17.6 fold | Fold Activation PPAR gamma, MEAN (PPARγ; 100 μm): 15.2 fold | toxic effect in animal models (animal models): no toxic effect | genotoxicity [3]: not genotoxic | skin sensitization [4]: no skin sensitization | skin whitening activity [5]: extraordinary skin whitening activity

Source: US20140017187A1, “Use of 5-(7-methoxy-3,3-dimethyl-2,3-dihydro-1-benzoxepin-5-yl)-3-methyl-penta-2,4-dienoic acid as a cosmetic” (Merck Patent GmbH, priority 2008, published 2014)
